Laboratory results published in US6503449B1, “Process for the control of microbial contamination in water-based solids suspensions” (Ciba Specialty Chemicals Corporation, priority 1998, dated 2003).

System: Pseudomonas putida
Test: Sonication (20 kHz horn probe) of Pigment Red 23 dispersion with biocide, streaking on Nutrient Agar plates
Assay type: cell-based
Set-up: key: −: no bacterial colonies detected; +: light contamination (10^0 and 10^3 cfu/ml); ++: moderate contamination(10^3-10^5 cfu/ml); +++: heavy contamination(>10^5 cfu/ml)
Excerpt: A mixture of Pigment Red 23, available from Ciba Specialty Chemicals(UK) Ltd., 215.5 parts, Emulan OG (RTM) (35% solution in water), available from BASF, 153.7 parts, tributyl phosphate, available from Albright & Wilson, 2 parts, and water, 128.8 parts, are dispersed by re-circulation through a Bachofen KDL200 bead-mill until colouristic properties are within specification of UNISPERSE (RTM) Red RBS-PI, available from Ciba Specialty Chemicals(UK) Ltd., and adjusted to pH 8.0-8.5 with 20% sodium hydroxide solution. This material is identified as containing the Gram negative bacterium, Pseudomonas putida. 50 millilitre aliquots of this dispersion containing levels of glutaraldehyde (pentane-1,5-dialdehyde), available as the trade product Protectol GDA form BASF or Ucarcide from Union Carbide, between 0 parts per million (ppm) and 2000 ppm are sonicated using a Branson MSE sonicator with a 19 mm horn probe resonating at 20 kHz with an amplitude of 6 microns. Sonication is undertaken in a 100 millilitre glass beaker, diameter 38 mm, with magnetic flea agitator and cooled in a water/ice bath to maintain temperature at 28-32° C. Bacterial growth in each sample is assessed at 5 minute intervals by streaking each dispersion on to Nutrient Agar(NA) plates and incubating the plates for a minimum of 48 hours at 30° C. The plates are then examined for bacterial colonies and expressed according to the following notation:
The resistance of the pigment dispersion produced according to the process of the invention to further bacterial growth is recorded by continued observation of the samples of Table 1 over a period of up to 90 days. […]

## O=CCCCC=O [glutaraldehyde, pentane-1,5-dialdehyde]
10 ppm, Time 1 (days) after sonication
  further bacterial growth, samples of Table 1: −
10 ppm, Time 2 (days) after sonication
  further bacterial growth, samples of Table 1: −
10 ppm, Time 3 (days) after sonication
  further bacterial growth, samples of Table 1: −
10 ppm, Time 7 (days) after sonication
  further bacterial growth, samples of Table 1: −
10 ppm, Time 14 (days) after sonication
  further bacterial growth, samples of Table 1: −
10 ppm, Time 28 (days) after sonication
  further bacterial growth, samples of Table 1: −
10 ppm, Time 90 (days) after sonication
  further bacterial growth, samples of Table 1: −
10 ppm, sonicated 0 mins.
  bacterial colonies on Nutrient Agar: +++ (heavy contamination(>10^5 cfu/ml))
10 ppm, sonicated 5 mins.
  bacterial colonies on Nutrient Agar: +++ (heavy contamination(>10^5 cfu/ml))
10 ppm, sonicated 10 mins.
  bacterial colonies on Nutrient Agar: +++ (heavy contamination(>10^5 cfu/ml))
10 ppm, sonicated 15 mins.
  bacterial colonies on Nutrient Agar: ++ (moderate contamination(10^3-10^5 cfu/ml))
10 ppm, sonicated 20 mins.
  bacterial colonies on Nutrient Agar: + (light contamination (10^0 and 10^3 cfu/ml))
10 ppm, sonicated 25 mins.
  bacterial colonies on Nutrient Agar: + (light contamination (10^0 and 10^3 cfu/ml))
10 ppm, sonicated 30 mins.
  bacterial colonies on Nutrient Agar: −
25 ppm, Time 1 (days) after sonication
  further bacterial growth, samples of Table 1: −
25 ppm, Time 2 (days) after sonication
  further bacterial growth, samples of Table 1: −
25 ppm, Time 3 (days) after sonication
  further bacterial growth, samples of Table 1: −
25 ppm, Time 7 (days) after sonication
  further bacterial growth, samples of Table 1: −
25 ppm, Time 14 (days) after sonication
  further bacterial growth, samples of Table 1: −
25 ppm, Time 28 (days) after sonication
  further bacterial growth, samples of Table 1: −
25 ppm, Time 90 (days) after sonication
  further bacterial growth, samples of Table 1: −
25 ppm, sonicated 0 mins.
  bacterial colonies on Nutrient Agar: +++ (heavy contamination(>10^5 cfu/ml))
25 ppm, sonicated 5 mins.
  bacterial colonies on Nutrient Agar: ++ (moderate contamination(10^3-10^5 cfu/ml))
25 ppm, sonicated 10 mins.
  bacterial colonies on Nutrient Agar: −
25 ppm, sonicated 15 mins.
  bacterial colonies on Nutrient Agar: −
25 ppm, sonicated 20 mins.
  bacterial colonies on Nutrient Agar: −
25 ppm, sonicated 25 mins.
  bacterial colonies on Nutrient Agar: −
25 ppm, sonicated 30 mins.
  bacterial colonies on Nutrient Agar: −
50 ppm, Time 1 (days) after sonication
  further bacterial growth, samples of Table 1: −
50 ppm, Time 2 (days) after sonication
  further bacterial growth, samples of Table 1: −
50 ppm, Time 3 (days) after sonication
  further bacterial growth, samples of Table 1: −
50 ppm, Time 7 (days) after sonication
  further bacterial growth, samples of Table 1: −
50 ppm, Time 14 (days) after sonication
  further bacterial growth, samples of Table 1: −
50 ppm, Time 28 (days) after sonication
  further bacterial growth, samples of Table 1: −
50 ppm, Time 90 (days) after sonication
  further bacterial growth, samples of Table 1: −
50 ppm, sonicated 0 mins.
  bacterial colonies on Nutrient Agar: +++ (heavy contamination(>10^5 cfu/ml))
50 ppm, sonicated 5 mins.
  bacterial colonies on Nutrient Agar: ++ (moderate contamination(10^3-10^5 cfu/ml))
50 ppm, sonicated 10 mins.
  bacterial colonies on Nutrient Agar: −
50 ppm, sonicated 15 mins.
  bacterial colonies on Nutrient Agar: ++ (moderate contamination(10^3-10^5 cfu/ml))
50 ppm, sonicated 20 mins.
  bacterial colonies on Nutrient Agar: −
50 ppm, sonicated 25 mins.
  bacterial colonies on Nutrient Agar: −
50 ppm, sonicated 30 mins.
  bacterial colonies on Nutrient Agar: −
75 ppm, Time 1 (days) after sonication
  further bacterial growth, samples of Table 1: −
75 ppm, Time 2 (days) after sonication
  further bacterial growth, samples of Table 1: −
75 ppm, Time 3 (days) after sonication
  further bacterial growth, samples of Table 1: −
75 ppm, Time 7 (days) after sonication
  further bacterial growth, samples of Table 1: −
75 ppm, Time 14 (days) after sonication
  further bacterial growth, samples of Table 1: −
75 ppm, Time 28 (days) after sonication
  further bacterial growth, samples of Table 1: −
75 ppm, Time 90 (days) after sonication
  further bacterial growth, samples of Table 1: −
75 ppm, sonicated 0 mins.
  bacterial colonies on Nutrient Agar: +++ (heavy contamination(>10^5 cfu/ml))
75 ppm, sonicated 5 mins.
  bacterial colonies on Nutrient Agar: −
75 ppm, sonicated 10 mins.
  bacterial colonies on Nutrient Agar: −
75 ppm, sonicated 15 mins.
  bacterial colonies on Nutrient Agar: −
75 ppm, sonicated 20 mins.
  bacterial colonies on Nutrient Agar: −
75 ppm, sonicated 25 mins.
  bacterial colonies on Nutrient Agar: −
75 ppm, sonicated 30 mins.
  bacterial colonies on Nutrient Agar: −
100 ppm, Time 1 (days) after sonication
  further bacterial growth, samples of Table 1: −
100 ppm, Time 2 (days) after sonication
  further bacterial growth, samples of Table 1: −
100 ppm, Time 3 (days) after sonication
  further bacterial growth, samples of Table 1: −
100 ppm, Time 7 (days) after sonication
  further bacterial growth, samples of Table 1: −
100 ppm, Time 14 (days) after sonication
  further bacterial growth, samples of Table 1: −
100 ppm, Time 28 (days) after sonication
  further bacterial growth, samples of Table 1: −
100 ppm, Time 90 (days) after sonication
  further bacterial growth, samples of Table 1: −
100 ppm, sonicated 0 mins.
  bacterial colonies on Nutrient Agar: +++ (heavy contamination(>10^5 cfu/ml))
100 ppm, sonicated 5 mins.
  bacterial colonies on Nutrient Agar: + (light contamination (10^0 and 10^3 cfu/ml))
100 ppm, sonicated 10 mins.
  bacterial colonies on Nutrient Agar: + (light contamination (10^0 and 10^3 cfu/ml))
100 ppm, sonicated 15 mins.
  bacterial colonies on Nutrient Agar: −
100 ppm, sonicated 20 mins.
  bacterial colonies on Nutrient Agar: −
100 ppm, sonicated 25 mins.
  bacterial colonies on Nutrient Agar: −
100 ppm, sonicated 30 mins.
  bacterial colonies on Nutrient Agar: −
150 ppm, Time 1 (days) after sonication
  further bacterial growth, samples of Table 1: −
150 ppm, Time 2 (days) after sonication
  further bacterial growth, samples of Table 1: −
150 ppm, Time 3 (days) after sonication
  further bacterial growth, samples of Table 1: −
150 ppm, Time 7 (days) after sonication
  further bacterial growth, samples of Table 1: −
150 ppm, Time 14 (days) after sonication
  further bacterial growth, samples of Table 1: −
150 ppm, Time 28 (days) after sonication
  further bacterial growth, samples of Table 1: −
150 ppm, Time 90 (days) after sonication
  further bacterial growth, samples of Table 1: −
150 ppm, sonicated 0 mins.
  bacterial colonies on Nutrient Agar: +++ (heavy contamination(>10^5 cfu/ml))
150 ppm, sonicated 5 mins.
  bacterial colonies on Nutrient Agar: −
150 ppm, sonicated 10 mins.
  bacterial colonies on Nutrient Agar: −
150 ppm, sonicated 15 mins.
  bacterial colonies on Nutrient Agar: −
150 ppm, sonicated 20 mins.
  bacterial colonies on Nutrient Agar: −
150 ppm, sonicated 25 mins.
  bacterial colonies on Nutrient Agar: −
150 ppm, sonicated 30 mins.
  bacterial colonies on Nutrient Agar: −
500 ppm, Time 1 (days) after sonication
  further bacterial growth, samples of Table 1: −
500 ppm, Time 2 (days) after sonication
  further bacterial growth, samples of Table 1: −
500 ppm, Time 3 (days) after sonication
  further bacterial growth, samples of Table 1: −
500 ppm, Time 7 (days) after sonication
  further bacterial growth, samples of Table 1: −
500 ppm, Time 14 (days) after sonication
  further bacterial growth, samples of Table 1: −
500 ppm, Time 28 (days) after sonication
  further bacterial growth, samples of Table 1: −
500 ppm, Time 90 (days) after sonication
  further bacterial growth, samples of Table 1: −
500 ppm, sonicated 0 mins.
  bacterial colonies on Nutrient Agar: +++ (heavy contamination(>10^5 cfu/ml))
500 ppm, sonicated 5 mins.
  bacterial colonies on Nutrient Agar: −
500 ppm, sonicated 10 mins.
  bacterial colonies on Nutrient Agar: −
500 ppm, sonicated 15 mins.
  bacterial colonies on Nutrient Agar: −
500 ppm, sonicated 20 mins.
  bacterial colonies on Nutrient Agar: −
500 ppm, sonicated 25 mins.
  bacterial colonies on Nutrient Agar: −
500 ppm, sonicated 30 mins.
  bacterial colonies on Nutrient Agar: −
1000 ppm, Time 1 (days) after sonication
  further bacterial growth, samples of Table 1: −
1000 ppm, Time 2 (days) after sonication
  further bacterial growth, samples of Table 1: −
1000 ppm, Time 3 (days) after sonication
  further bacterial growth, samples of Table 1: −
1000 ppm, Time 7 (days) after sonication
  further bacterial growth, samples of Table 1: −
1000 ppm, Time 14 (days) after sonication
  further bacterial growth, samples of Table 1: −
1000 ppm, Time 28 (days) after sonication
  further bacterial growth, samples of Table 1: −
1000 ppm, Time 90 (days) after sonication
  further bacterial growth, samples of Table 1: −
1000 ppm, sonicated 0 mins.
  bacterial colonies on Nutrient Agar: +++ (heavy contamination(>10^5 cfu/ml))
1000 ppm, sonicated 5 mins.
  bacterial colonies on Nutrient Agar: −
1000 ppm, sonicated 10 mins.
  bacterial colonies on Nutrient Agar: −
1000 ppm, sonicated 15 mins.
  bacterial colonies on Nutrient Agar: −
1000 ppm, sonicated 20 mins.
  bacterial colonies on Nutrient Agar: −
1000 ppm, sonicated 25 mins.
  bacterial colonies on Nutrient Agar: −
1000 ppm, sonicated 30 mins.
  bacterial colonies on Nutrient Agar: −
2000 ppm, Time 1 (days) after sonication
  further bacterial growth, samples of Table 1: −
2000 ppm, Time 2 (days) after sonication
  further bacterial growth, samples of Table 1: −
2000 ppm, Time 3 (days) after sonication
  further bacterial growth, samples of Table 1: −
2000 ppm, Time 7 (days) after sonication
  further bacterial growth, samples of Table 1: −
2000 ppm, Time 14 (days) after sonication
  further bacterial growth, samples of Table 1: −
2000 ppm, Time 28 (days) after sonication
  further bacterial growth, samples of Table 1: −
2000 ppm, Time 90 (days) after sonication
  further bacterial growth, samples of Table 1: −
2000 ppm, sonicated 0 mins.
  bacterial colonies on Nutrient Agar: +++ (heavy contamination(>10^5 cfu/ml))
2000 ppm, sonicated 5 mins.
  bacterial colonies on Nutrient Agar: −
2000 ppm, sonicated 10 mins.
  bacterial colonies on Nutrient Agar: −
2000 ppm, sonicated 15 mins.
  bacterial colonies on Nutrient Agar: −
2000 ppm, sonicated 20 mins.
  bacterial colonies on Nutrient Agar: −
2000 ppm, sonicated 25 mins.
  bacterial colonies on Nutrient Agar: −
2000 ppm, sonicated 30 mins.
  bacterial colonies on Nutrient Agar: −
